Test results published in paper PMC4685510, “A Cell Biologist’s Field Guide to Aurora Kinase Inhibitors” (Frontiers in Oncology, 2015).
Read-outs that look alike come from different tables or passages of the source.

Experiments:
Assay in all cases: biochemical
Assay type in all cases: biochemical
[1] = target: 363 human kinases (including Aurora A/B/C) (Homo sapiens, UniProt P11362); conditions: for remaining activity at 0.1 µM / remaining activity at 0.5 µM: read-out: % Enzyme Activity (relative to DMSO controls)
Description: (§1) However, the Aurora A/B selectivity ratios derived from our in vitro and in vivo data can be compared to prioritize inhibitors.

[2] = target: T1, 363 human kinases (including Aurora A/B/C) (Homo sapiens, UniProt P52333); conditions: JAK3; for remaining activity at 0.1 µM: 100 nM; for remaining activity at 0.1 µM / remaining activity at 0.5 µM: read-out: % Enzyme Activity (relative to DMSO controls)
T1 sequence (P52333 1-1124): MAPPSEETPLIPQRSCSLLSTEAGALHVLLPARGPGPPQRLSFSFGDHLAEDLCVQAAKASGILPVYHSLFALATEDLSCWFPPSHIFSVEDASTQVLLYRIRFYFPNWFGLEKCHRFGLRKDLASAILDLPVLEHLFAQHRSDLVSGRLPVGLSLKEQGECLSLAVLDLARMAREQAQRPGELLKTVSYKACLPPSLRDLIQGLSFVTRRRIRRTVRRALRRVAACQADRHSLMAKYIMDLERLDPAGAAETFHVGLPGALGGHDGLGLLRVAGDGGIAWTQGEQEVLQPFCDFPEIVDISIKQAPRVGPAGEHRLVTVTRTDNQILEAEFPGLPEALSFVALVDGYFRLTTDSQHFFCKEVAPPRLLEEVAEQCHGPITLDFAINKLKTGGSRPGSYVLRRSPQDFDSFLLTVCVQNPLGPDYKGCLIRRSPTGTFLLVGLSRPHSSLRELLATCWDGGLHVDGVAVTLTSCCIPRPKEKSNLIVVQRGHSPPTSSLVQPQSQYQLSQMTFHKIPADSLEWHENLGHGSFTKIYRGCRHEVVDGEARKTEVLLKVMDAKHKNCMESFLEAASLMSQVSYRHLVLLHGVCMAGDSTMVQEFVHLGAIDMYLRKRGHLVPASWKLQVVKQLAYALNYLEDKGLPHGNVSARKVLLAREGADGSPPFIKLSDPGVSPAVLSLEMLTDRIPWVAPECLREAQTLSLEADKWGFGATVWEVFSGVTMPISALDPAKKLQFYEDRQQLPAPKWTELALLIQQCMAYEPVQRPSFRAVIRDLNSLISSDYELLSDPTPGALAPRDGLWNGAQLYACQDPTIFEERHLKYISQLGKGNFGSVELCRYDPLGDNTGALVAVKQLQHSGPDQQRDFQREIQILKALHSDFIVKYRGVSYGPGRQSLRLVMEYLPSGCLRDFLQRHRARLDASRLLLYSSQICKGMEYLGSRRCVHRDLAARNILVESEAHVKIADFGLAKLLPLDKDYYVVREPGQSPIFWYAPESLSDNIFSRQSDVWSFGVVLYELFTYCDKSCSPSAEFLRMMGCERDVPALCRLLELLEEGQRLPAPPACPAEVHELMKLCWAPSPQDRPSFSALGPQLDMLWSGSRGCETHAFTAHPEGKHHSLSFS
Description: as §1

[3] = target: T2, 363 human kinases (including Aurora A/B/C) (Homo sapiens, UniProt Q99683); conditions: ASK1/MAP3K5, [ATP] 100 µM; for remaining activity at 0.1 µM: 100 nM; for remaining activity at 0.1 µM / remaining activity at 0.5 µM: read-out: % Enzyme Activity (relative to DMSO controls)
T2 sequence (Q99683 1-1374): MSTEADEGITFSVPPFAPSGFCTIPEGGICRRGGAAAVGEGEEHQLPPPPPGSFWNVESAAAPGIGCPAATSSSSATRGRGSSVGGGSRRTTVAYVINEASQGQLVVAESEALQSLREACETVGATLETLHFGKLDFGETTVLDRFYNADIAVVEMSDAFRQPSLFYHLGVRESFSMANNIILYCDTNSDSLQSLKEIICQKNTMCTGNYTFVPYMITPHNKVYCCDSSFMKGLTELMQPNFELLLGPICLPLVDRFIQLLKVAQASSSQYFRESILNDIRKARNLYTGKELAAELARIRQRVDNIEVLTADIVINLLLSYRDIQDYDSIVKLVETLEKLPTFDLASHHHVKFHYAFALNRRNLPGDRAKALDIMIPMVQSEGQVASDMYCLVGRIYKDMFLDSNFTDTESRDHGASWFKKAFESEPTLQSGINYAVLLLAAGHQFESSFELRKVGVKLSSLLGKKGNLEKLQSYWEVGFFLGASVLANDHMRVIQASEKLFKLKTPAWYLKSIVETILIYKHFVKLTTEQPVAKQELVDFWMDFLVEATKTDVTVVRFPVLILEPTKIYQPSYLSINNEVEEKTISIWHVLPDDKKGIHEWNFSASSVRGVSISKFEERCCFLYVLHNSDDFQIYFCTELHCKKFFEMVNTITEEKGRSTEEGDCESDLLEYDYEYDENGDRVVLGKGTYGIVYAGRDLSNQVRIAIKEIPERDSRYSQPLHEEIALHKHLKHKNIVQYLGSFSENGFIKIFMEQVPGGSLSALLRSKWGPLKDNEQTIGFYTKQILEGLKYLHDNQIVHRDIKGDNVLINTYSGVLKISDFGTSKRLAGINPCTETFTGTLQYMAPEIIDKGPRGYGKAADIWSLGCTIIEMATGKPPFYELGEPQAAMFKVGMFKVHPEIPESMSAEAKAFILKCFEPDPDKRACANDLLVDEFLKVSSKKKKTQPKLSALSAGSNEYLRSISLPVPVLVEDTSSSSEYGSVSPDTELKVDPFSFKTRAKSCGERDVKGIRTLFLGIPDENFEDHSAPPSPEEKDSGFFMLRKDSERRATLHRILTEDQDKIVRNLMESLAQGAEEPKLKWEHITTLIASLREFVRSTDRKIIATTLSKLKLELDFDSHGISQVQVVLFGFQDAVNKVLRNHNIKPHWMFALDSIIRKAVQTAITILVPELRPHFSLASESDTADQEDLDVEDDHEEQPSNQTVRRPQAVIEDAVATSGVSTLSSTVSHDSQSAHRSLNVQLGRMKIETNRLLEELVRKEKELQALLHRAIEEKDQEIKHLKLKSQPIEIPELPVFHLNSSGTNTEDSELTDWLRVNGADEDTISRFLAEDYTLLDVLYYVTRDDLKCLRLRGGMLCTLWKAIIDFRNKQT
Description: as §1

Chain of 363 human kinases (including Aurora A/B/C) (Homo sapiens, UniProt P11362) (P11362 22-822): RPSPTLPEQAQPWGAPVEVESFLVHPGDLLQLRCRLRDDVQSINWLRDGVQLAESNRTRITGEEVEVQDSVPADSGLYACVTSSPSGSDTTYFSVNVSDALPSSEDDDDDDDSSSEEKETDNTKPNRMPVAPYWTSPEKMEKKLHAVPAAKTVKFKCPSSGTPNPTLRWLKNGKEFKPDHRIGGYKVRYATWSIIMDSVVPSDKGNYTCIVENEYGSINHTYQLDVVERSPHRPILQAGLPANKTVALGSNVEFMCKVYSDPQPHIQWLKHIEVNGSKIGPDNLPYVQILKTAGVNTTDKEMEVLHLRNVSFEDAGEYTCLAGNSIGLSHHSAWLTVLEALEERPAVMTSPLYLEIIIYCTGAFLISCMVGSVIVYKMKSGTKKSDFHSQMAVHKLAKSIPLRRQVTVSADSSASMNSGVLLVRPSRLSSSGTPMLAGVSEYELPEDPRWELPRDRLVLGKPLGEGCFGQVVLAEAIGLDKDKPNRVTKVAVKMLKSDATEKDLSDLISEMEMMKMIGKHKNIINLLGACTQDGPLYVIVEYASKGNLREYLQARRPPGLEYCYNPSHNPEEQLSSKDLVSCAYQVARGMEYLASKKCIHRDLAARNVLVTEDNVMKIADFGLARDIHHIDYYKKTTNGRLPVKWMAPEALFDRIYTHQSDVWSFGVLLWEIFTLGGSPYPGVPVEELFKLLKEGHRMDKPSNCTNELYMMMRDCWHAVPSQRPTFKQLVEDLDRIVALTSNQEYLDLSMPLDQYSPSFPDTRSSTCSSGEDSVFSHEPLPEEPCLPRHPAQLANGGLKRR

SMILES	remaining activity at 0.1 µM [1] [%]	remaining activity at 0.1 µM [2] [%]	remaining activity at 0.1 µM [3] [%]	remaining activity at 0.1 µM ([1]; FGFR1, [ATP] 5 µM, 100 nM) [%]	remaining activity at 0.5 µM ([1]; FGFR1, [ATP] 5 µM, 500 nM) [%]	remaining activity at 0.5 µM ([2]; 500 nM) [%]	remaining activity at 0.5 µM ([3]; 500 nM) [%]	% Enzyme Activity (relative to DMSO controls) ([1]; FGFR1, [ATP] 5 µM, 500 nM) [%]	% Enzyme Activity (relative to DMSO controls) ([2]; 500 nM) [%]	% Enzyme Activity (relative to DMSO controls) ([3]; 500 nM) [%]
CCn1cc(-c2ccnc3[nH]c(-c4cccc(CN(C)C)c4)cc23)c(-c2ccc(NC(=O)N(C)C)cc2)n1 [GSK1070916]	60.2	97.2	79.6							
O=C(O)[C@]1(Cc2cccc(Nc3nccs3)n2)CC[C@@H](Oc2cccc(Cl)c2F)CC1 [MK-5108]		31.4	85.6	61.8	30.8	6.75	73.8			
O=C(c1cccc(Cl)c1F)N1CCN(Cc2cccc(Nc3nccs3)n2)CC1 [MK-8745]					97.1	85.6	78.7	93.82	84.37	78.24
